Earlier results on one compound are cited in paper PMC10216446 (Biomolecules, 2023).

For data set [1] the following is noted: stated as a known limitation of TNP, no reference given.
A further data set concerns human cytochrome P450s. More on the design: method as in PMID 27689003.
The next data set concerns IP6K. The settings on record: reported values; read-out: reported IC50 values for TNP.

pIC50: −log10 of the molar value.

Turning to `O=[N+]([O-])c1ccc(CNc2nc(NCc3cccc(C(F)(F)F)c3)nc3nc[nH]c23)cc1` [TNP, N2-(m-trifluorobenzyl), N6-(p-nitrobenzyl)purine], in data set [1], the aqueous solubility entry is on record as “poor”. In addition, the “inhibition of human cytochrome P450s” value in the data set with human cytochrome P450s is “potent inhibitor of human cytochrome P450s”. The negative logarithm of the IC50 (pIC50) (usually the IC50 on a negative log10 scale, so that one unit is a factor of ten) with IP6K was 6.00 to 6.60.
